Measured values as given in ChEMBL document CHEMBL5532655, “Discovery of (R)-4-(8-methoxy-2-methyl-1-(1-phenylethy)-1H-imidazo[4,5-c]quinnolin-7-yl)-3,5-dimethylisoxazole as a potent and selective BET inhibitor for treatment of acute myeloid leukemia (AML) guided by FEP calculation” (Eur J Med Chem, 2024).
Active and inactive are the calls of the source. The calls are words filed in the database; no cut-off is given here.

How the values were obtained:
[1] = tested on: MV4-11; assay: Induction of apoptosis in human MV4-11 cells assessed as late apoptotic cells at 2.5 uM incubated for 24 hrs by annexin V-FITC/PI staining based flow cytometric analysis (reference value: 0.04 %); type: functional
[2] = tested on: MV4-11; assay: Induction of apoptosis in human MV4-11 cells assessed as early apoptotic cells at 2.5 uM incubated for 24 hrs by annexin V-FITC/PI staining based flow cytometric analysis (reference value: 0%); type: functional
[3] = tested on: MV4-11; assay: Induction of apoptosis in human MV4-11 cells assessed as upregulation of p21 expression at 0.3125 to 2.5 uM incubated for 48 hrs by Western blotting analysis; type: functional, cell-based; details: dose 0.3125-2.5 µM
[4] = tested on: MV4-11; assay: Induction of apoptosis in human MV4-11 cells assessed as necrotic cells at 2.5 uM incubated for 24 hrs by annexin V-FITC/PI staining based flow cytometric analysis (reference value: 2.35 %); type: functional
[5] = tested on: MV4-11; assay: Induction of apoptosis in human MV4-11 cells assessed as upregulation of PARP expression at 0.3125 to 2.5 uM incubated for 48 hrs by Western blotting analysis; type: functional, cell-based; details: dose 0.3125-2.5 µM
[6] = tested on: MV4-11; assay: Induction of apoptosis in human MV4-11 cells assessed as viable cells at 10 uM incubated for 24 hrs by annexin V-FITC/PI staining based flow cytometric analysis (reference value: 97%); type: functional; details: Homo sapiens, MV4-11, read-out: Activity
[7] = tested on: MV4-11; assay: Induction of cell cycle arrest in human MV4-11 cells assessed as accumulation of cells at S phase at 0.3125 uM incubated for 24 hrs by propidium iodide staining flow cytometric analysis (reference value: 43.94 %); type: functional
[8] = tested on: MV4-11; assay: Induction of cell cycle arrest in human MV4-11 cells assessed as accumulation of cells at G0/G1 phase at 0.625 uM incubated for 24 hrs by propidium iodide staining flow cytometric analysis (reference value: 37.64 %); type: functional
[9] = Volume of distribution at steady state in Sprague-Dawley rat at 1 mg/kg,iv administration measured upto 24 hrs by LC-MS/MS analysis; type: ADME, organism-based; details: in vivo, read-out: Vdss
[10] = tested on: MV4-11; assay: Induction of apoptosis in human MV4-11 cells assessed as early apoptotic cells at 5 uM incubated for 24 hrs by annexin V-FITC/PI staining based flow cytometric analysis (reference value: 0%); type: functional
[11] = tested on: MV4-11; assay: Antitumor activity against human MV4-11 cells xenografted in BALB/c mouse assessed as tumor growth inhibition at 30 mg/kg administration relative to control; type: functional; details: read-out: TGI
[12] = AUC (0-infinity) in Sprague-Dawley rat at 1 mg/kg,iv administration measured upto 24 hrs by LC-MS/MS analysis; type: ADME, organism-based; details: in vivo
[13] = tested on: MV4-11; assay: Induction of cell cycle arrest in human MV4-11 cells assessed as accumulation of cells at S phase at 2.5 uM incubated for 24 hrs by propidium iodide staining flow cytometric analysis (reference value: 43.94 %); type: functional
[14] = tested on: MV4-11; assay: Induction of apoptosis in human MV4-11 cells assessed as early apoptotic cells at 0.625 uM incubated for 24 hrs by annexin V-FITC/PI staining based flow cytometric analysis (reference value: 0%); type: functional
[15] = tested on: MV4-11; assay: Induction of cell cycle arrest in human MV4-11 cells assessed as accumulation of cells at S phase at 0.625 uM incubated for 24 hrs by propidium iodide staining flow cytometric analysis (reference value: 43.94 %); type: functional
[16] = tested on: MV4-11; assay: Induction of cell cycle arrest in human MV4-11 cells assessed as accumulation of cells at G0/G1 phase at 5 uM incubated for 24 hrs by propidium iodide staining flow cytometric analysis (reference value: 37.64 %); type: functional
[17] = tested on: MV4-11; assay: Induction of cell cycle arrest in human MV4-11 cells assessed as accumulation of cells at G2/M phase at 1.25 uM incubated for 24 hrs by propidium iodide staining flow cytometric analysis (reference value: 18 %); type: functional
[18] = tested on: MV4-11; assay: Induction of apoptosis in human MV4-11 cells assessed as viable cells at 1.25 uM incubated for 24 hrs by annexin V-FITC/PI staining based flow cytometric analysis (reference value: 97%); type: functional; details: Homo sapiens, MV4-11, read-out: Activity
[19] = tested on: MV4-11; assay: Induction of apoptosis in human MV4-11 cells assessed as late apoptotic cells at 10 uM incubated for 24 hrs by annexin V-FITC/PI staining based flow cytometric analysis (reference value: 0.04 %); type: functional
[20] = Oral bioavailability in Sprague-Dawley rat at 10 mg/kg measured upto 24 hrs by LC-MS/MS analysis; type: ADME, organism-based; details: in vivo
[21] = Clearance in Sprague-Dawley rat at 1 mg/kg,iv administration measured upto 24 hrs by LC-MS/MS analysis; type: ADME, organism-based; details: in vivo
[22] = Tmax in Sprague-Dawley rat at 10 mg/kg,po administration measured upto 24 hrs by LC-MS/MS analysis; type: ADME, organism-based; details: in vivo
[23] = tested on: MV4-11; assay: Induction of apoptosis in human MV4-11 cells assessed as upregulation of cleaved PARP expression at 500 nM hrs by Western blotting analysis; type: functional, cell-based; details: TDE = time-dependent effect
[24] = MRTinfinity in Sprague-Dawley rat at 10 mg/kg,po administration measured upto 24 hrs by LC-MS/MS analysis; type: ADME, organism-based; details: in vivo
[25] = tested on: MV4-11; assay: Induction of apoptosis in human MV4-11 cells assessed as necrotic cells at 5 uM incubated for 24 hrs by annexin V-FITC/PI staining based flow cytometric analysis (reference value: 2.35 %); type: functional
[26] = tested on: MV4-11; assay: Induction of apoptosis in human MV4-11 cells assessed as early apoptotic cells at 1.25 uM incubated for 24 hrs by annexin V-FITC/PI staining based flow cytometric analysis (reference value: 0%); type: functional
[27] = tested on: MV4-11; assay: Induction of apoptosis in human MV4-11 cells assessed as downregulation of CDK6 expression at 0.3125 to 2.5 uM incubated for 48 hrs by Western blotting analysis; type: functional, cell-based; details: dose 0.3125-2.5 µM
[28] = tested on: MV4-11; assay: Induction of cell cycle arrest in human MV4-11 cells assessed as accumulation of cells at G0/G1 phase at 2.5 uM incubated for 24 hrs by propidium iodide staining flow cytometric analysis (reference value: 37.64 %); type: functional
[29] = tested on: MV4-11; assay: Induction of cell cycle arrest in human MV4-11 cells assessed as accumulation of cells at G2/M phase at 5 uM incubated for 24 hrs by propidium iodide staining flow cytometric analysis (reference value: 18 %); type: functional
[30] = AUC (0-t) in Sprague-Dawley rat at 10 mg/kg,po administration measured upto 24 hrs by LC-MS/MS analysis; type: ADME, organism-based; details: in vivo
[31] = MRTinfinity in Sprague-Dawley rat at 1 mg/kg,iv administration measured upto 24 hrs by LC-MS/MS analysis; type: ADME, organism-based; details: in vivo
[32] = Apparent oral clearance in Sprague-Dawley rat at 10 mg/kg,po administration measured upto 24 hrs by LC-MS/MS analysis; type: ADME, organism-based; details: in vivo
[33] = tested on: MV4-11; assay: Induction of cell cycle arrest in human MV4-11 cells assessed as accumulation of cells at S phase at 1.25 uM incubated for 24 hrs by propidium iodide staining flow cytometric analysis (reference value: 43.94 %); type: functional
[34] = molecular target: Bromodomain-containing protein 2 (Homo sapiens) (UniProt P25440); details: time 30.0 min
Sequence of Bromodomain-containing protein 2 (Homo sapiens) (P25440 whole entry, looked up): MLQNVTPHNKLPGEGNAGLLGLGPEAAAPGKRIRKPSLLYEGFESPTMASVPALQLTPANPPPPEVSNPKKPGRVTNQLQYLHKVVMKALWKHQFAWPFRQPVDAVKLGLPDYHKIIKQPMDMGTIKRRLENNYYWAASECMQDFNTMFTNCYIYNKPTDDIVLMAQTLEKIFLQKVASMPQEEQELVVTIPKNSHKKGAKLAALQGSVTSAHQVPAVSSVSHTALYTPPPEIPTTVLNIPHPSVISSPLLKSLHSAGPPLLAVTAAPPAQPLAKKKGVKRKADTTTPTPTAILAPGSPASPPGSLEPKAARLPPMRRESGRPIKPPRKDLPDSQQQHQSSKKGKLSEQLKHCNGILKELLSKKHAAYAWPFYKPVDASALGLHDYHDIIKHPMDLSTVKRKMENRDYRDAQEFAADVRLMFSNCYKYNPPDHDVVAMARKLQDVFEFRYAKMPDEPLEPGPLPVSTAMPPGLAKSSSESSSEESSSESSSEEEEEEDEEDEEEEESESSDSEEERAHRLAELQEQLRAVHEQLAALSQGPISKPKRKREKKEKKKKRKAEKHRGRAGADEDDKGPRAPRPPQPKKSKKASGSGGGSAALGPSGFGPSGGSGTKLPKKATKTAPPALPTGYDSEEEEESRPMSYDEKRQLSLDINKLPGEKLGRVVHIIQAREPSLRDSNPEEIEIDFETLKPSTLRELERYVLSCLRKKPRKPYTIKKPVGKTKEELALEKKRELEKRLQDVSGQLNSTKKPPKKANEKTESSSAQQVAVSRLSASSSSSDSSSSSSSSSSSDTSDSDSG

[35] = molecular target: Bromodomain testis-specific protein (Homo sapiens) (UniProt Q58F21); details: time 30.0 min

For `COc1cc2c(cc1-c1c(C)noc1C)ncc1nc(C)n([C@H](C)c3ccccc3)c12`, which Activity [1] is on record?
Its Activity is 9.68%.

And the Activity [2]?
The Activity was 8.72%.

What about the Activity [3] of the same molecule?
Its Activity is “Active”.

What about the Activity [4] of the same molecule?
Its Activity is 8%.

And the Activity [5]?
Its Activity is “Active”.

What about the viability at 10 µM [6] of the same molecule?
The viability at 10 µM was 73.5%.

What about the Activity [7] of the same molecule?
The Activity was 44.55%.

And the Activity [8]?
Its Activity is 61.2%.

What about the Vd [9] of the same molecule?
Its Vd is 0.6 L/kg.

What about the Activity [10] of the same molecule?
Its Activity is 8.46%.

And the inhibition in vivo at 30 mg/kg [11]?
The inhibition in vivo at 30 mg/kg was 55.1%.

And the AUC(0-inf) [12]?
Its AUC(0-inf) is 1400 ng·h/mL.

What about the Activity [13] of the same molecule?
Its Activity is 20.35%.

And the Activity [14]?
The Activity was 6.87%.

What about the Activity [15] of the same molecule?
The Activity was 44.55%.

And the Activity [16]?
The Activity was 78.57%.

And the Activity [17]?
Its Activity is 5.16%.

And the viability at 1.25 µM [18]?
Its viability at 1.25 µM is 83.1%.

And the Activity [19]?
Its Activity is 11.62%.

What about the bioavailability [20] of the same molecule?
The bioavailability was 114%.

And the clearance [21]?
The clearance was 12.1 mL/min/kg.

And the Tmax [22]?
The Tmax was 1 h.

And the Activity [23]?
The Activity was “Tde”.

What about the MRT inf [24] of the same molecule?
The MRT inf was 5.86 h.

What about the Activity [25] of the same molecule?
Its Activity is 8%.

What about the Activity [26] of the same molecule?
Its Activity is 6.62%.

And the Activity [27]?
The Activity was “Active”.

And the Activity [28]?
Its Activity is 72.14%.

What about the Activity [29] of the same molecule?
The Activity was 3.63%.

And the AUC(0-t) at 24 h [30]?
The AUC(0-t) at 24 h was 16000 ng·h/mL.

And the MRT inf [31]?
The MRT inf was 0.84 h.

And the CL/F [32]?
The CL/F was 10.4 mL/min/kg.

And the Activity [33]?
The Activity was 23.31%.

Which results are given for `COc1cc2c(cc1-c1c(C)n[nH]c1C)ncc1nc(C)n([C@H](C)c3ccccc3)c12`?
ΔTm [34]: 5 °C; ΔTm [35]: 5 °C
